Earlier results on 2 compounds are cited in patent publication US8283517B2, “Transgenic mouse models of Aβ overexpression” (Probiodrug AG, priority 2007, dated 2012).

The test system of one series is QC. The conditions noted are these: QC catalyzed conversion of Glu-βNA, pH-dependence data.
Assay in series [1]: not given
The source holds these as a separate data set.

Consider `N[C@@H](CCC(=O)O)C(=O)Nc1ccc2ccccc2c1` [Glu-βNA], for which the “pKa-value of the α-amino group, determined by titration” value is 7.57±0.05. In addition, the “kinetically determined pKa-value” in the series on QC is listed as 7.55+/−0.02.

`N[C@@H](CCC(=O)O)C(=O)O` [Glutamate]: in series [1], the “pKa-value for the α-amino moiety” value is approximately 7.5. The “pKa-value for the γ-carboxylic moiety” value in series [1] (printed as 7-carboxylic) is reported as “about 4.2”.
